What all share (assay): NCI anticancer screen, dose series, 48 h
Experiment [1] concerns OVCAR-3 ovarian.
Experiment [2] deals with 786-0 renal.
Experiment [3] relates to LOX IMVI melanoma.
The test system of experiment [4] is SNB-19 CNS.
For experiment [5], the system named is HOP-62 NSCLC.
The subject of experiment [6] is UACC-257 melanoma.
Experiment [7] concerns NCI/ADR-RES ovarian.
The test system of experiment [8] is SN12C renal.
Experiment [9] concerns CCRF-CEM leukemia.
Experiment [10] has as its system MDA-MB-435.
For experiment [11], the system named is SR leukemia.
Experiment [12] concerns OVCAR-5 ovarian.

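Five compound concentrations were applied to cells in 96-well plates for 48 hours; endpoints were derived by simple linear interpolation of the resulting dose-response curve. TGI: total growth inhibition.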 Some results are limits rather than exact numbers.

On to `CN(C)Cc1cc(N=Nc2ccc(Cl)c(Cl)c2)ccc1O`, for which the TGI in experiment [1] was 19.2 µM; in experiment [2] it was 24.2 µM; in experiment [3], 17.9 µM; in experiment [4] it was 27.6 µM; in experiment [5] it was 15.3 µM; in experiment [6], 30.5 µM. For the same compound, the TGI in [7] came to 23.5 µM; in experiment [8] it was 27.8 µM; in experiment [9] it was 20 µM; in experiment [10], 23.9 µM; in [11], 28.6 µM.
On to `Cc1ccc2c3c1O[C@H]1c4nc5ccccc5cc4C[C@@]4(O)[C@@H](C2)N(CC2CC2)CC[C@]314`, for which the TGI in experiment [1] is 25.3 µM; in experiment [2], 22.7 µM; in experiment [3] it was 17 µM; in experiment [4], greater than 100 µM; in experiment [5], 31.3 µM; in experiment [6] it was 41.1 µM. Also, the TGI in [7] is 23.5 µM; in experiment [8], greater than 100 µM; in experiment [9], 22.3 µM; in experiment [10], 23.5 µM; in experiment [11] it was 50.9 µM; in [12] it was 25.8 µM.
Turning to `CN(C)c1ccc(/C=C2\N=C(c3ccccc3)N(c3nc4c(Cl)cc(Cl)cc4s3)C2=O)cc1`, the TGI in experiment [1], in experiment [2], in [3], in [4], in experiment [5] and in [6] was greater than 100 µM in each case. The TGI is greater than 100 µM in experiment [7]; greater than 100 µM in experiment [8]; 23.6 µM in experiment [9]; 67.6 µM in experiment [10]; greater than 100 µM in [11]; greater than 100 µM in experiment [12].
In the case of `CCn1c2c(c3c(C(=O)OC)c(O)ccc31)C(=O)c1ccccc1C2=O`, the TGI in experiment [1] is 63.1 µM; in experiment [2] it was 25.4 µM; in experiment [3], 71.6 µM; in [4], greater than 100 µM; in experiment [5] it was 30.1 µM; in [6], greater than 100 µM. Further, the TGI in experiment [7] turned out to be 66 µM; in experiment [8] it was 29.4 µM; in [9], 43.6 µM; in [10], 32.4 µM; in experiment [11], 46.6 µM; in experiment [12], 42.5 µM.
Take `CN(C)Cc1cc(C(=O)O)cc(CN(C)C)c1O`: the TGI in [1], in [2], in [3], in experiment [4], in experiment [5] and in [6] was greater than 100 µM throughout. For the same compound, the TGI in [7], in experiment [8], in [9], in [10], in experiment [11] and in experiment [12] was greater than 100 µM throughout.
`CC(C)n1c(=O)c2nn3c(=O)n(C(C)C)c(=O)c3nn2c1=O`: the TGI in [1], in [2], in experiment [3], in experiment [4], in experiment [5] and in experiment [6] was greater than 100 µM throughout. Also, the TGI in experiment [7], in [8], in experiment [9], in [10], in experiment [11] and in [12] was greater than 100 µM in each case.
As for `CC(NC(=O)c1ccc(OP(=O)(OCC2=CC(=O)c3ccccc3C2=O)N(C)CCCCCl)cc1)c1ccc(OCC2CCCCC2)c(C(N)=O)c1` (stereo unspecified), the TGI in experiment [1] came to 17.4 µM; in experiment [2], 28.6 µM; in experiment [3] it was 17.6 µM; in [4], 35.1 µM; in [5], 32.9 µM; in [6], 18.6 µM. In addition, the TGI in experiment [7] was found to be 32.5 µM; in [8], 26.2 µM; in experiment [9] it was 30.6 µM; in [10] it was 5.68 µM; in [11], 34.3 µM; in experiment [12] it was 70.6 µM.
In the case of `COc1cccc(-c2cc(=O)c3cc(C)cnc3[nH]2)c1`, the TGI in [1] was greater than 100 µM; in experiment [2], greater than 25.3 µM; in [3], greater than 100 µM; in [4], greater than 100 µM; in [5] it was greater than 100 µM; in experiment [6], greater than 100 µM. Also, the TGI was greater than 100 µM in [7]; greater than 33.9 µM in experiment [8]; greater than 100 µM in experiment [9]; 0.0686 µM in experiment [10]; 95.7 µM in experiment [11]; greater than 100 µM in experiment [12].
On to `COc1ccc(N=C/C=C/Nc2ccc(OC)cc2)cc1`, for which the TGI came out at 3.45 µM in [1]; 15.6 µM in [2]; 5.45 µM in [3]; 10.4 µM in experiment [4]; 12.1 µM in experiment [5]; 18.7 µM in [6]. Besides, the TGI in experiment [7] was 25 µM; in [8], 8.86 µM; in experiment [9], greater than 37.2 µM; in [10], 24 µM; in experiment [11], 11.2 µM; in experiment [12], 29.6 µM.
Turning to `CN(C)c1ccc(C(c2ccc(N(C)C)cc2)c2ccc([N+](=O)[O-])cc2)cc1`, the TGI in experiment [1], in experiment [2], in experiment [3], in [4], in [5] and in [6] was greater than 100 µM each time. In addition, the TGI in [7], in [8], in [9], in experiment [10], in experiment [11] and in [12] was greater than 100 µM throughout.
Take `COc1ccc2c(c1)CC[C@@H]1[C@@H]2CC[C@]2(C)/C(=N/OCCN3CCCCC3)CC[C@@H]12`: the TGI in experiment [1] is 15 µM; in experiment [2], 3.41 µM; in experiment [3] it was 3.8 µM; in experiment [4], 21 µM; in experiment [5], 21 µM; in experiment [6], 5.34 µM. The TGI in experiment [7] amounted to 24.2 µM; in experiment [8], 17 µM; in experiment [9], 10.4 µM; in experiment [10] it was 16.9 µM; in experiment [11] it was 6.29 µM; in experiment [12], 16.6 µM.
